From PubChem BioAssay AID256 (DTP/NCI, 2004)
Values joined by “and” are separate entries in the source; they are usually repeats but may differ in a detail not shown here. Identical values can stand only once. Toxic doses and inconclusive results are not listed.

Test system: CD2F1 mice, L1210 leukemia ip, survival T/C
Assay: NCI In Vivo Anticancer Drug Screen. Data for tumor model L1210 Leukemia (intraperitoneal) in CD2F1 (CDF1) mice
Conditions: higher = longer survival
Procedure, shortened: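 Activity against a transplanted murine tumor was judged by comparing the compound group with a vehicle group. The outcome in the treated animals was divided by that in the controls.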

[1] = endpoint: mean survival time, dose: 100.0 mg/kg/injection, schedule: Q01DX001 (ip), vehicle: saline with Tween-80
[2] = endpoint: mean survival time, dose: 200.0 mg/kg/injection, schedule: Q01DX001 (ip), vehicle: saline with Tween-80
[3] = endpoint: mean survival time, dose: 400.0 mg/kg/injection, schedule: Q01DX001 (ip), vehicle: saline with Tween-80
[4] = endpoint: mean survival time, dose: 50.0 mg/kg/injection, schedule: Q01DX009 (ip), vehicle: saline with Tween-80
[5] = endpoint: mean survival time, dose: 100.0 mg/kg/injection, schedule: Q01DX009 (ip), vehicle: saline with Tween-80
[6] = endpoint: mean survival time, dose: 200.0 mg/kg/injection, schedule: Q01DX009 (ip), vehicle: saline with Tween-80
[7] = endpoint: mean survival time, dose: 100.0 mg/kg/injection, schedule: Q04DX003 (ip), vehicle: saline with Tween-80
[8] = endpoint: mean survival time, dose: 200.0 mg/kg/injection, schedule: Q04DX003 (ip), vehicle: saline with Tween-80
[9] = endpoint: mean survival time, dose: 400.0 mg/kg/injection, schedule: Q04DX003 (ip), vehicle: saline with Tween-80
[10] = endpoint: mean survival time, dose: 25.0 mg/kg/injection, schedule: Q04DX003 (ip), vehicle: other
[11] = endpoint: mean survival time, dose: 50.0 mg/kg/injection, schedule: Q04DX003 (ip), vehicle: other
[12] = endpoint: mean survival time, dose: 400.0 mg/kg/injection, schedule: Q01DX009 (ip), vehicle: saline with Tween-80
[13] = endpoint: mean survival time, dose: 100.0 mg/kg/injection, schedule: Q04DX003 (ip), vehicle: saline
[14] = endpoint: mean survival time, dose: 200.0 mg/kg/injection, schedule: Q04DX003 (ip), vehicle: saline
[15] = endpoint: mean survival time, dose: 400.0 mg/kg/injection, schedule: Q04DX003 (ip), vehicle: saline

CN(N=O)C(=O)NC1C(CO)OC(n2ccc(N)nc2=O)C1O (stereo not drawn)
T/C (endpoint: mean survival time, dose: 12.5 mg/kg/injection, schedule: Q01DX001 (ip), vehicle: saline with Tween-80): 101 % of control | T/C (endpoint: mean survival time, dose: 25.0 mg/kg/injection, schedule: Q01DX001 (ip), vehicle: saline with Tween-80): 110 % of control | T/C (endpoint: mean survival time, dose: 50.0 mg/kg/injection, schedule: Q01DX001 (ip), vehicle: saline with Tween-80): 98 % of control | T/C [1]: 98 % of control | T/C [2]: 103 % of control | T/C [3]: 108 % of control

CCOC(=O)Nc1ccc(F)cc1
T/C (endpoint: mean survival time, dose: 100.0 mg/kg/injection, schedule: Q01DX009 (ip), vehicle: other): 98 % of control | T/C (endpoint: mean survival time, dose: 200.0 mg/kg/injection, schedule: Q01DX009 (ip), vehicle: other): 98 % of control | T/C (endpoint: mean survival time, dose: 400.0 mg/kg/injection, schedule: Q01DX009 (ip), vehicle: other): 107 % of control

Oc1ccccc1-c1ccccc1
T/C [4]: 98 % of control | T/C [5]: 98 % of control | T/C [6]: 98 % of control

O=C1C2C3C=CC(C2C(=O)N1CO)C1C2C(=O)N(CO)C(=O)C2C31 (stereo not drawn)
T/C (endpoint: median survival time, dose: 6.25 mg/kg/injection, schedule: Q01DX009 (ip), vehicle: water): 104 % of control | T/C (endpoint: median survival time, dose: 12.5 mg/kg/injection, schedule: Q01DX009 (ip), vehicle: water): 107 % of control | T/C (endpoint: median survival time, dose: 25.0 mg/kg/injection, schedule: Q01DX009 (ip), vehicle: water): 124 % of control | T/C (endpoint: median survival time, dose: 50.0 mg/kg/injection, schedule: Q01DX009 (ip), vehicle: water): 190 % of control and 214 % of control | T/C (endpoint: median survival time, dose: 83.3 mg/kg/injection, schedule: Q01DX009 (ip), vehicle: water): 100 % of control

CC(=O)C1CCC2C3=CC=C4CC(OC(=O)c5ccccc5)CCC4(C)C3CCC12C (stereo not drawn)
T/C [7]: 101 % of control | T/C [8]: 98 % of control | T/C [9]: 102 % of control

COc1cc(/C=C2\SC(=O)NC2=O)ccc1O
T/C [5]: 105 % of control

COC1CCC2CC1[N+](C)(C)C2 (stereo not drawn)
T/C (endpoint: mean survival time, dose: 12.5 mg/kg/injection, schedule: Q04DX002 (ip), vehicle: saline): 96 % of control | T/C (endpoint: mean survival time, dose: 25.0 mg/kg/injection, schedule: Q04DX002 (ip), vehicle: saline): 101 % of control | T/C (endpoint: mean survival time, dose: 50.0 mg/kg/injection, schedule: Q04DX002 (ip), vehicle: saline): 101 % of control

CCCc1cc(=O)[nH]c(SCC(=O)O)n1
T/C (endpoint: mean survival time, dose: 100.0 mg/kg/injection, schedule: Q04DX002 (ip), vehicle: saline with Tween-80): 98 % of control | T/C (endpoint: mean survival time, dose: 200.0 mg/kg/injection, schedule: Q04DX002 (ip), vehicle: saline with Tween-80): 98 % of control | T/C (endpoint: mean survival time, dose: 400.0 mg/kg/injection, schedule: Q04DX002 (ip), vehicle: saline with Tween-80): 92 % of control

ClC1(Cl)C2CCCCC21 (stereo not drawn)
T/C (endpoint: mean survival time, dose: 50.0 mg/kg/injection, schedule: Q01DX009 (ip), vehicle: saline sonified): 98 % of control | T/C (endpoint: mean survival time, dose: 100.0 mg/kg/injection, schedule: Q01DX009 (ip), vehicle: saline sonified): 98 % of control | T/C [7]: 98 % of control | T/C (endpoint: mean survival time, dose: 200.0 mg/kg/injection, schedule: Q01DX009 (ip), vehicle: saline sonified): 97 % of control | T/C [8]: 97 % of control

NC(=S)Nc1ccc([N+](=O)[O-])cc1
T/C [10]: 96 % of control | T/C [11]: 91 % of control | T/C (endpoint: mean survival time, dose: 100.0 mg/kg/injection, schedule: Q04DX003 (ip), vehicle: other): 88 % of control and 95 % of control

O=C(CN1CC1)NCCCCCCCCNC(=O)CN1CC1
T/C (endpoint: mean survival time, dose: 4.4 mg/kg/injection, schedule: Q01DX009 (ip), vehicle: carboxymethylcellulose (CMC)): 116 % of control | T/C (endpoint: mean survival time, dose: 6.6 mg/kg/injection, schedule: Q01DX009 (ip), vehicle: carboxymethylcellulose (CMC)): 122 % of control | T/C (endpoint: mean survival time, dose: 22.0 mg/kg/injection, schedule: Q01DX001 (ip), vehicle: carboxymethylcellulose (CMC)): 120 % of control | T/C (endpoint: mean survival time, dose: 33.0 mg/kg/injection, schedule: Q01DX001 (ip), vehicle: carboxymethylcellulose (CMC)): 123 % of control

COc1cc2c(cc1O)CCCC=C2C1CCCCc2cc(O)c(OC)cc21 (stereo not drawn)
T/C [4]: 96 % of control | T/C [5]: 103 % of control | T/C [6]: 96 % of control

O=C(O)C[N-]CC[N-]CC(=O)O.[Cl][Pt+2][Cl]
T/C (endpoint: mean survival time, dose: 6.25 mg/kg/injection, schedule: Q04DX003 (ip), vehicle: other): 101 % of control | T/C (endpoint: mean survival time, dose: 12.5 mg/kg/injection, schedule: Q04DX003 (ip), vehicle: other): 100 % of control | T/C [10]: 104 % of control | T/C [11]: 109 % of control

Cc1ccc(-c2cc(O)cc(-c3ccc(C)cc3C)c2O)c(C)c1
T/C [3]: 91 % of control

COc1ccc(OC)c(NC(=O)Nc2ccc(S(N)(=O)=O)cc2)c1
T/C [5]: 98 % of control | T/C [6]: 93 % of control | T/C [12]: 96 % of control

CCCCCOC(=O)Nc1cccc(O)c1
T/C [7]: 95 % of control | T/C [8]: 94 % of control

CC(=O)[C@H]1CC[C@H]2[C@@H]3CC[C@@H]4CC(=O)CC[C@]4(C)[C@H]3CC[C@]12C
T/C [7]: 96 % of control | T/C [8]: 96 % of control | T/C [9]: 96 % of control

COc1cc(C)n2nnnc2n1
T/C (endpoint: mean survival time, dose: 100.0 mg/kg/injection, schedule: Q01DX001 (ip), vehicle: saline): 107 % of control

NC(=O)c1cc(Cl)nc2nc(Cl)nc(N)c12
T/C (endpoint: median survival time, dose: 25.0 mg/kg/injection, schedule: Q01DX009 (ip), vehicle: saline with Tween-80): 89 % of control | T/C (endpoint: median survival time, dose: 50.0 mg/kg/injection, schedule: Q01DX009 (ip), vehicle: saline with Tween-80): 94 % of control | T/C (endpoint: median survival time, dose: 100.0 mg/kg/injection, schedule: Q01DX009 (ip), vehicle: saline with Tween-80): 100 % of control | T/C (endpoint: median survival time, dose: 200.0 mg/kg/injection, schedule: Q01DX009 (ip), vehicle: saline with Tween-80): 100 % of control | T/C (endpoint: median survival time, dose: 400.0 mg/kg/injection, schedule: Q01DX009 (ip), vehicle: saline with Tween-80): 101 % of control

C[C@]12CCCC[C@@H]1CC[C@@H]1[C@@H]2[C@@H](O)C[C@]2(C)[C@@H](O)CC[C@@H]12
T/C [7]: 93 % of control | T/C [8]: 101 % of control

CCOC(=O)c1cnc(SC)nc1NCc1ccc(Cl)cc1
T/C [1]: 98 % of control | T/C [5]: 100 % of control | T/C [2]: 102 % of control | T/C [6]: 103 % of control | T/C [3]: 94 % of control | T/C [12]: 97 % of control

CCOC(=O)c1[nH]c(C)c(C(=O)OCC)c1C
T/C (endpoint: mean survival time, dose: 100.0 mg/kg/injection, schedule: Q04DX003 (ip), vehicle: Klucel (hydroxypropylcellulose) (HPC)): 103 % of control | T/C (endpoint: mean survival time, dose: 200.0 mg/kg/injection, schedule: Q04DX003 (ip), vehicle: Klucel (hydroxypropylcellulose) (HPC)): 103 % of control | T/C (endpoint: mean survival time, dose: 400.0 mg/kg/injection, schedule: Q04DX003 (ip), vehicle: Klucel (hydroxypropylcellulose) (HPC)): 95 % of control

CC(C)(C)C(=O)C#Cc1ccccc1
T/C (endpoint: mean survival time, dose: 25.0 mg/kg/injection, schedule: Q01DX009 (ip), vehicle: saline): 94 % of control | T/C (endpoint: mean survival time, dose: 50.0 mg/kg/injection, schedule: Q01DX009 (ip), vehicle: saline): 97 % of control

O=C1C=CC(=O)c2nc3c(nc21)[nH]c1ccccc13
T/C (endpoint: mean survival time, dose: 75.0 mg/kg/injection, schedule: Q01DX001 (ip), vehicle: saline): 101 % of control | T/C (endpoint: mean survival time, dose: 150.0 mg/kg/injection, schedule: Q01DX001 (ip), vehicle: saline): 98 % of control | T/C (endpoint: mean survival time, dose: 300.0 mg/kg/injection, schedule: Q01DX001 (ip), vehicle: saline): 97 % of control

CCN(CC)C(=O)CS(=O)(=O)c1ccc(C)cc1
T/C [5]: 100 % of control | T/C [6]: 100 % of control | T/C [12]: 101 % of control

OCC(F)(F)C(F)(F)C(F)(F)F
T/C (endpoint: mean survival time, dose: 75.0 mg/kg/injection, schedule: Q01DX009 (ip), vehicle: saline): 95 % of control | T/C (endpoint: mean survival time, dose: 150.0 mg/kg/injection, schedule: Q01DX009 (ip), vehicle: saline): 95 % of control | T/C (endpoint: mean survival time, dose: 300.0 mg/kg/injection, schedule: Q01DX009 (ip), vehicle: saline): 103 % of control | T/C (endpoint: mean survival time, dose: 600.0 mg/kg/injection, schedule: Q01DX009 (ip), vehicle: saline): 86 % of control

CC(N)(CO)C(=O)O (stereo not drawn)
T/C [13]: 108 % of control | T/C [14]: 113 % of control | T/C [15]: 103 % of control

c1ccc(Cc2ccccn2)nc1
T/C (endpoint: mean survival time, dose: 100.0 mg/kg/injection, schedule: Q01DX009 (ip), vehicle: saline): 110 % of control | T/C (endpoint: mean survival time, dose: 200.0 mg/kg/injection, schedule: Q01DX009 (ip), vehicle: saline): 101 % of control | T/C (endpoint: mean survival time, dose: 400.0 mg/kg/injection, schedule: Q01DX009 (ip), vehicle: saline): 90 % of control

CCCCCC(C)O[Si](C)OCC (stereo not drawn)
T/C [13]: 96 % of control | T/C [14]: 106 % of control | T/C [15]: 108 % of control
